How the values were obtained:
Format in all cases: in vivo
transplanted rice plant = assay: Test Example 1: effect on crop, application before weed generation in submerged conditions (symbol a); settings: application herbicide amount 320 g/ha
Outline: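 Rice at 2.5 leaf stage transplanted into submerged soil (4 cm depth) sown with three weed species; herbicide applied before weed emergence.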

[1] = test system: Echinochloa crus-galli var. crus-galli; assay: Test Example 3: herbicidal effect by foliage application, Wagner pot (symbol H); settings: application herbicide amount 320 g/ha
Outline: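 Seeds sown in alluvial soil kept under 0.1–0.5 cm water, greenhouse 25–30 °C; 14 d growth. Leaves treated by small sprayer with water-diluted emulsion at a predetermined rate. Effect graded by set scale, 3 weeks.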

[2] = test system: directly sowed rice plant; assay: Test Example 3: effect on crop by foliage application, Wagner pot (symbol b); settings: application herbicide amount 320 g/ha
Outline: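 Greenhouse culture at 25–30 °C of seeded rice, Cyperus difformis, Leptochloa chinensis and Echinochloa crus-galli var. crus-galli, in alluvial soil held under 0.1–0.5 cm of water in a Wagner pot.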

Digitaria ciliaris [3] = assay: Test Example 4: herbicidal effect by soil treatment (symbol F); settings: application herbicide amount 320 g/ha
Outline: (§1)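 Seeds were sown in sterilized diluvial soil, covered with about 1.5 cm of soil, and the soil surface was sprayed with a water-diluted emulsion of the compound at a predetermined rate. Plants grew in a greenhouse at 25° C. to 30° C.; effects were scored visually 3 weeks after application.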

Setaria viridis = assay: Test Example 4: herbicidal effect by soil treatment (symbol G); settings: application herbicide amount 320 g/ha
Outline: as §1

Lolium multiflorum Lam. [4] = assay: Test Example 4: herbicidal effect by soil treatment (symbol K); settings: application herbicide amount 320 g/ha
Outline: as §1

Amaranthus retroflexus = assay: Test Example 4: herbicidal effect by soil treatment (symbol N); settings: application herbicide amount 320 g/ha
Outline: as §1

Galium spurium = assay: Test Example 4: herbicidal effect by soil treatment (symbol Q); settings: application herbicide amount 320 g/ha
Outline: as §1

Veronica persica = assay: Test Example 4: herbicidal effect by soil treatment (symbol R); settings: application herbicide amount 320 g/ha
Outline: as §1

wheat = assay: Test Example 4: effect on crop by soil treatment (symbol e); settings: application herbicide amount 320 g/ha
Outline: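 Crop seed is sown in spots together with several weed species in a box of sterilized diluvial soil. It is covered by about 1.5 cm of soil and kept in a greenhouse held between 25° C. and 30° C.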

Digitaria ciliaris [5] = assay: Test Example 5: herbicidal effect by foliage application, plastic box (symbol F); settings: 320 g/ha, 3 weeks after application
Outline: (§2)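 Herbicide, formulated as an emulsion and diluted in water, is sprayed onto the aerial parts of 14-day seedlings. These were grown at 25° C. to 30° C. in sterilized diluvial soil; effects are graded after 3 weeks.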

Alopecurus myosuroides = assay: Test Example 5: herbicidal effect by foliage application, plastic box (symbol J); settings: 320 g/ha, 3 weeks after application
Outline: as §2

Lolium multiflorum Lam. [6] = assay: Test Example 5: herbicidal effect by foliage application, plastic box (symbol K); settings: 320 g/ha, 3 weeks after application
Outline: as §2

Abutilon theophrasti = assay: Test Example 5: herbicidal effect by foliage application, plastic box (symbol M); settings: 320 g/ha, 3 weeks after application
Outline: as §2

Chenopodium album = assay: Test Example 5: herbicidal effect by foliage application, plastic box (symbol O); settings: 320 g/ha, 3 weeks after application
Outline: as §2

Stellaria media = assay: Test Example 5: herbicidal effect by foliage application, plastic box (symbol P); settings: 320 g/ha, 3 weeks after application
Outline: as §2

beet = assay: Test Example 5: effect on crop by foliage application, plastic box (symbol f); settings: 320 g/ha, 3 weeks after application
Outline: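 A greenhouse held between 25° C. and 30° C. was used to grow plants sown spot-wise, beneath ~1.5 cm of soil, in boxes of sterilized diluvial soil.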

Compound | Effect grade on crop, a: transplanted rice plant (transplanted rice plant) | herbicidal effect on H (Echinochloa crus-galli var. crus-galli), grade 0-5 [1] | effect on crop b (directly sowed rice plant), grade 0-5 [2] | F: Digitaria ciliaris, herbicidal effect grade (Digitaria ciliaris [3]) | G: Setaria viridis, herbicidal effect grade (Setaria viridis) | K: Lolium multiflorum Lam., herbicidal effect grade (Lolium multiflorum Lam. [4]) | N: Amaranthus retroflexus, herbicidal effect grade (Amaranthus retroflexus) | Q: Galium spurium, herbicidal effect grade (Galium spurium) | R: Veronica persica, herbicidal effect grade (Veronica persica) | e: wheat, effect on crop grade (wheat) | F: Digitaria ciliaris, herbicidal effect (criteria of Test Example 1) (Digitaria ciliaris [5]) | J: Alopecurus myosuroides, herbicidal effect (criteria of Test Example 1) (Alopecurus myosuroides) | K: Lolium multiflorum Lam., herbicidal effect (criteria of Test Example 1) (Lolium multiflorum Lam. [6]) | M: Abutilon theophrasti, herbicidal effect (criteria of Test Example 1) (Abutilon theophrasti) | P: Stellaria media, herbicidal effect (criteria of Test Example 1) (Stellaria media) | f: beet, effect on crop (criteria of Test Example 1) (beet) | other results
CON=C(C)CC1CC(O)=C(c2c(C)cc(-c3ccc(OC(F)(F)F)cc3)cc2C)C1=O (mixture of isomers) [6-056] | 0 (Herbicidal ratio of 5% or lower (almost no effect)) | 4 (Herbicidal ratio of 70% or higher and lower than 90%) | 5 (Herbicidal ratio of 90% or more (almost completely withered)) | 0 (Herbicidal ratio of 5% or lower (almost no effect)) | 2 (Herbicidal ratio of 20% or higher and lower than 40%) | 0 (Herbicidal ratio of 5% or lower (almost no effect)) | 0 (Herbicidal ratio of 5% or lower (almost no effect)) | 0 (Herbicidal ratio of 5% or lower (almost no effect)) | 0 (Herbicidal ratio of 5% or lower (almost no effect)) | 0 (Herbicidal ratio of 5% or lower (almost no effect)) | 5 (Herbicidal ratio of 90% or more (almost completely withered)) | 3 (Herbicidal ratio of 40% or higher and lower than 70%) | 4 (Herbicidal ratio of 70% or higher and lower than 90%) | 0 (Herbicidal ratio of 5% or lower (almost no effect)) | 0 (Herbicidal ratio of 5% or lower (almost no effect)) | 0 (Herbicidal ratio of 5% or lower (almost no effect)) | O: Chenopodium album, herbicidal effect (criteria of Test Example 1) (Chenopodium album): 3 (Herbicidal ratio of 40% or higher and lower than 70%)
CON=C(C)CC1CC(OC(=O)C2CC2)=C(c2c(C)cc(C)cc2C)C1=O (stereo not shown) [1-015] | 5 (Herbicidal ratio of 90% or more (almost completely withered)) | 5 (Herbicidal ratio of 90% or more (almost completely withered)) | 5 (Herbicidal ratio of 90% or more (almost completely withered)) |  |  |  |  |  |  |  |  |  |  |  |  |  | F (Digitaria ciliaris) herbicidal effect grade (Digitaria ciliaris [3]): 5 (Herbicidal ratio of 90% or more (almost completely withered)); G (Setaria viridis) herbicidal effect grade (Setaria viridis): 3 (Herbicidal ratio of 40% or higher and lower than 70%); K (Lolium multiflorum Lam.) herbicidal effect grade (Lolium multiflorum Lam. [4]): 5 (Herbicidal ratio of 90% or more (almost completely withered)); N (Amaranthus retroflexus) herbicidal effect grade (Amaranthus retroflexus): 5 (Herbicidal ratio of 90% or more (almost completely withered)); Q (Galium spurium) herbicidal effect grade (Galium spurium): 3 (Herbicidal ratio of 40% or higher and lower than 70%); e (wheat) effect on crop grade (wheat): 3 (Herbicidal ratio of 40% or higher and lower than 70%); F: Digitaria ciliaris, herbicidal effect grade (Digitaria ciliaris [5]): 5 (Herbicidal ratio of 90% or more (almost completely withered)); J: Alopecurus myosuroides, herbicidal effect grade (Alopecurus myosuroides): 5 (Herbicidal ratio of 90% or more (almost completely withered)); K: Lolium multiflorum Lam., herbicidal effect grade (Lolium multiflorum Lam. [6]): 5 (Herbicidal ratio of 90% or more (almost completely withered)); M: Abutilon theophrasti, herbicidal effect grade (Abutilon theophrasti): 4 (Herbicidal ratio of 70% or higher and lower than 90%); O: Chenopodium album, herbicidal effect grade (Chenopodium album): 3 (Herbicidal ratio of 40% or higher and lower than 70%); P: Stellaria media, herbicidal effect grade (Stellaria media): 4 (Herbicidal ratio of 70% or higher and lower than 90%); f: beet, effect on crop grade (beet): 3 (Herbicidal ratio of 40% or higher and lower than 70%)
CON=C(C)CC1CC(OC(=O)N2CCOCC2)=C(c2c(C)cc(-c3ccc(Cl)cc3)cc2C)C1=O (mixture of isomers) [6-062] | 5 (Herbicidal ratio of 90% or more (almost completely withered)) | 5 (Herbicidal ratio of 90% or more (almost completely withered)) | 5 (Herbicidal ratio of 90% or more (almost completely withered)) | 3 (Herbicidal ratio of 40% or higher and lower than 70%) | 5 (Herbicidal ratio of 90% or more (almost completely withered)) | 0 (Herbicidal ratio of 5% or lower (almost no effect)) | 0 (Herbicidal ratio of 5% or lower (almost no effect)) | 0 (Herbicidal ratio of 5% or lower (almost no effect)) | 3 (Herbicidal ratio of 40% or higher and lower than 70%) | 0 (Herbicidal ratio of 5% or lower (almost no effect)) | 5 (Herbicidal ratio of 90% or more (almost completely withered)) | 5 (Herbicidal ratio of 90% or more (almost completely withered)) | 4 (Herbicidal ratio of 70% or higher and lower than 90%) | 3 (Herbicidal ratio of 40% or higher and lower than 70%) | 3 (Herbicidal ratio of 40% or higher and lower than 70%) | 0 (Herbicidal ratio of 5% or lower (almost no effect)) | 

— patent US11000033B2, “Ketone or oxime compound, and herbicide” (NISSAN CHEMICAL CORPORATION, priority 2014, dated 2021)
